From the NIST ThermoML archive (doi:10.1021/je700288s)

Experiment: mn = molality of the nth substance listed, in mol/kg
Settings: 101 kPa, Liquid; for speed of sound: Sing-around technique in a fixed-path interferometer; for mass density: Vibrating tube method

O=C([O-])CC(O)(CC(=O)O)C(=O)O.[K+] [potassium dihydrogen citrate] + O
Settings	mass density [kg/m3]	speed of sound [m/s]
283.15 K, m1 = 0.0063	1000.47	1448.8
283.15 K, m1 = 0.0186	1001.97	1450.1
283.15 K, m1 = 0.0314	1003.53	1451.5
283.15 K, m1 = 0.0407	1004.65	1452.5
283.15 K, m1 = 0.0561	1006.52	1454.2
283.15 K, m1 = 0.0574	1006.67	1454.3
283.15 K, m1 = 0.0868	1010.19	1457.2
283.15 K, m1 = 0.0905	1010.65	1457.9
283.15 K, m1 = 0.1399	1016.4	1462.9
283.15 K, m1 = 0.1655	1019.36	1465.4
283.15 K, m1 = 0.284	1032.79	1477
283.15 K, m1 = 0.396	1044.96	1487.4
283.15 K, m1 = 0.4766	1053.37	1494.6
283.15 K, m1 = 0.5861	1064.69	1504.1
283.15 K, m1 = 0.5922	1065.27	1504.7
283.15 K, m1 = 0.7578	1081.71	1518.5
288.15 K, m1 = 0.0063	999.861	1466.9
288.15 K, m1 = 0.0186	1001.34	1468.2
288.15 K, m1 = 0.0314	1002.87	1469.5
288.15 K, m1 = 0.0407	1003.98	1470.4
288.15 K, m1 = 0.0561	1005.82	1472
288.15 K, m1 = 0.0574	1005.97	1472.1
288.15 K, m1 = 0.0868	1009.45	1475
288.15 K, m1 = 0.0905	1009.9	1475.4
288.15 K, m1 = 0.1399	1015.58	1480.1
288.15 K, m1 = 0.1655	1018.5	1482.5
288.15 K, m1 = 0.284	1031.76	1493.4
288.15 K, m1 = 0.396	1043.8	1503.1
288.15 K, m1 = 0.4766	1052.13	1509.8
288.15 K, m1 = 0.5861	1063.34	1518.9
288.15 K, m1 = 0.5922	1063.9	1519.4
288.15 K, m1 = 0.7578	1080.19	1532.5
293.15 K, m1 = 0.0063	998.956	1483.1
293.15 K, m1 = 0.0186	1000.41	1484.3
293.15 K, m1 = 0.0314	1001.93	1485.5
293.15 K, m1 = 0.0407	1003.03	1486.4
293.15 K, m1 = 0.0561	1004.84	1487.9
293.15 K, m1 = 0.0574	1004.99	1488
293.15 K, m1 = 0.0868	1008.42	1490.7
293.15 K, m1 = 0.0905	1008.87	1491
293.15 K, m1 = 0.1399	1014.48	1495.5
293.15 K, m1 = 0.1655	1017.37	1497.7
293.15 K, m1 = 0.284	1030.49	1507.8
293.15 K, m1 = 0.396	1042.41	1517
293.15 K, m1 = 0.4766	1050.65	1523.3
293.15 K, m1 = 0.5861	1061.76	1531.8
293.15 K, m1 = 0.5922	1062.33	1532.3
293.15 K, m1 = 0.7578	1078.48	1544.7
298.15 K, m1 = 0.0063	997.788	1497.3
298.15 K, m1 = 0.0186	999.232	1498.5
298.15 K, m1 = 0.0314	1000.73	1499.6
298.15 K, m1 = 0.0407	1001.82	1500.4
298.15 K, m1 = 0.0561	1003.61	1501.8
298.15 K, m1 = 0.0574	1003.75	1501.9
298.15 K, m1 = 0.0868	1007.15	1504.4
298.15 K, m1 = 0.0905	1007.6	1504.7
298.15 K, m1 = 0.1399	1013.15	1508.8
298.15 K, m1 = 0.1655	1016	1510.9
298.15 K, m1 = 0.284	1029	1520.5
298.15 K, m1 = 0.396	1040.81	1529
298.15 K, m1 = 0.4766	1048.98	1535
298.15 K, m1 = 0.5861	1060	1543
298.15 K, m1 = 0.5922	1060.56	1543.5
298.15 K, m1 = 0.7578	1076.59	1555.2
303.15 K, m1 = 0.0063	996.385	1509.7
303.15 K, m1 = 0.0186	997.809	1510.7
303.15 K, m1 = 0.0314	999.297	1511.8
303.15 K, m1 = 0.0407	1000.37	1512.5
303.15 K, m1 = 0.0561	1002.15	1513.8
303.15 K, m1 = 0.0574	1002.29	1513.9
303.15 K, m1 = 0.0868	1005.65	1516.3
303.15 K, m1 = 0.0905	1006.09	1516.6
303.15 K, m1 = 0.1399	1011.59	1520.5
303.15 K, m1 = 0.1655	1014.43	1522.4
303.15 K, m1 = 0.284	1027.31	1531.4
303.15 K, m1 = 0.396	1039.02	1539.4
303.15 K, m1 = 0.4766	1047.12	1545
303.15 K, m1 = 0.5861	1058.06	1552.6
303.15 K, m1 = 0.5922	1058.61	1553
303.15 K, m1 = 0.7578	1074.53	1564.2
308.15 K, m1 = 0.0063	994.762	1520.3
308.15 K, m1 = 0.0186	996.176	1521.3
308.15 K, m1 = 0.0314	997.649	1522.3
308.15 K, m1 = 0.0407	998.709	1523
308.15 K, m1 = 0.0561	1000.47	1524.2
308.15 K, m1 = 0.0574	1000.61	1524.3
308.15 K, m1 = 0.0868	1003.95	1526.5
308.15 K, m1 = 0.0905	1004.38	1526.8
308.15 K, m1 = 0.1399	1009.84	1530.4
308.15 K, m1 = 0.1655	1012.65	1532.3
308.15 K, m1 = 0.284	1025.42	1540.7
308.15 K, m1 = 0.396	1037.05	1548.2
308.15 K, m1 = 0.4766	1045.1	1553.5
308.15 K, m1 = 0.5861	1055.95	1560.7
308.15 K, m1 = 0.5922	1056.5	1561.1
308.15 K, m1 = 0.7578	1072.31	1571.6
